Laboratory results reported in ChEMBL document CHEMBL1137403, “Discovery of 2-[4-{{2-(2S,5R)-2-cyano-5-ethynyl-1-pyrrolidinyl]-2-oxoethyl]amino]- 4-methyl-1-piperidinyl]-4-pyridinecarboxylic acid (ABT-279): a very potent, selective, effective, and well-tolerated inhibitor of dipeptidyl peptidase-IV, useful for the treatment of diabetes” (J Med Chem, 2006).

How the values were obtained:
[1] = target: T1, Prolyl endopeptidase FAP (Homo sapiens, UniProt Q12884); test: Inhibition of FAPalpha
T1 sequence (Q12884 whole entry): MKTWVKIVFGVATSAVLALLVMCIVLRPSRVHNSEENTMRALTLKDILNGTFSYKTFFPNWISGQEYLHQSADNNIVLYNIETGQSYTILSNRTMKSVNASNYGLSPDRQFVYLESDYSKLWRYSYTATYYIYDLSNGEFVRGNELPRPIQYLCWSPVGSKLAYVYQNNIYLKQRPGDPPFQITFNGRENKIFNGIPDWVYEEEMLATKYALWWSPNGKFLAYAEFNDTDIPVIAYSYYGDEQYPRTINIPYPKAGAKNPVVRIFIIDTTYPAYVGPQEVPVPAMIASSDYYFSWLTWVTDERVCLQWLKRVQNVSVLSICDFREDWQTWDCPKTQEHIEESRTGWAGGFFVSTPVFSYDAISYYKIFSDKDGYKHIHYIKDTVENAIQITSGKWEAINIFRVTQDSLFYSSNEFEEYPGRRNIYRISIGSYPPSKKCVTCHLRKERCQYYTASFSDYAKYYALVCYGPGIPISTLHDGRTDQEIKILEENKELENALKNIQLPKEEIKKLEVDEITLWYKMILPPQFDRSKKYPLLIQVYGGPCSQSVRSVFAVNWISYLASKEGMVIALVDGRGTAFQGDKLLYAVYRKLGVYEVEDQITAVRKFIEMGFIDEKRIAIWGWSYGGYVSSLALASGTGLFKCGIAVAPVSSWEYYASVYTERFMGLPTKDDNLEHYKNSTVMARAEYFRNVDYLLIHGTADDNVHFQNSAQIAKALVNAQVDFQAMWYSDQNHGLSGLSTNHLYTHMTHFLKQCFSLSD

[2] = target: T2, Prolyl endopeptidase (Homo sapiens, UniProt P48147); test: Inhibition of POP
T2 sequence (P48147 whole entry): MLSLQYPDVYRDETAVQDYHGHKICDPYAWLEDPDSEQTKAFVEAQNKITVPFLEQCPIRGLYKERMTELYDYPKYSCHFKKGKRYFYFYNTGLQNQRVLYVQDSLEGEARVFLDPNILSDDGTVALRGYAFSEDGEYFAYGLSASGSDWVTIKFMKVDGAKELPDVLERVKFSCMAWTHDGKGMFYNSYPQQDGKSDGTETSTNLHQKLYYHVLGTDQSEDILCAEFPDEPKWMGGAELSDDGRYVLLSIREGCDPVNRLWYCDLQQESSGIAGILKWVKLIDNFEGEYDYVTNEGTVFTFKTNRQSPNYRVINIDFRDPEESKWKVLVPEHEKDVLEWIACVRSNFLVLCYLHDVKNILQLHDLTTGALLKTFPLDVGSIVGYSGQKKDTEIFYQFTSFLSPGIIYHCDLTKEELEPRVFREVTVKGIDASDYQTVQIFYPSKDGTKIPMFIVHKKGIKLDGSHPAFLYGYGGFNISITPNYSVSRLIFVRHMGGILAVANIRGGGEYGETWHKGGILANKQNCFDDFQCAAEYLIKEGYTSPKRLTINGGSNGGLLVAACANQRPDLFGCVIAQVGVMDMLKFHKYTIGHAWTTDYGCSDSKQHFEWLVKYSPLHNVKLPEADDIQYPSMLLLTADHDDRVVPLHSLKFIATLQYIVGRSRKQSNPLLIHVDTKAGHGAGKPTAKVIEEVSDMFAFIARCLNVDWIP

[3] = target: Dipeptidyl peptidase 9 (Homo sapiens, UniProt Q86TI2)
[4] = target: Dipeptidyl peptidase 8 (Homo sapiens, UniProt Q6V1X1)
[5] = target: Dipeptidyl peptidase 2 (Homo sapiens, UniProt Q9UHL4); test: Inhibition of DPP7

Measured: Ki

Sequence of Dipeptidyl peptidase 9 (Q86TI2 whole entry): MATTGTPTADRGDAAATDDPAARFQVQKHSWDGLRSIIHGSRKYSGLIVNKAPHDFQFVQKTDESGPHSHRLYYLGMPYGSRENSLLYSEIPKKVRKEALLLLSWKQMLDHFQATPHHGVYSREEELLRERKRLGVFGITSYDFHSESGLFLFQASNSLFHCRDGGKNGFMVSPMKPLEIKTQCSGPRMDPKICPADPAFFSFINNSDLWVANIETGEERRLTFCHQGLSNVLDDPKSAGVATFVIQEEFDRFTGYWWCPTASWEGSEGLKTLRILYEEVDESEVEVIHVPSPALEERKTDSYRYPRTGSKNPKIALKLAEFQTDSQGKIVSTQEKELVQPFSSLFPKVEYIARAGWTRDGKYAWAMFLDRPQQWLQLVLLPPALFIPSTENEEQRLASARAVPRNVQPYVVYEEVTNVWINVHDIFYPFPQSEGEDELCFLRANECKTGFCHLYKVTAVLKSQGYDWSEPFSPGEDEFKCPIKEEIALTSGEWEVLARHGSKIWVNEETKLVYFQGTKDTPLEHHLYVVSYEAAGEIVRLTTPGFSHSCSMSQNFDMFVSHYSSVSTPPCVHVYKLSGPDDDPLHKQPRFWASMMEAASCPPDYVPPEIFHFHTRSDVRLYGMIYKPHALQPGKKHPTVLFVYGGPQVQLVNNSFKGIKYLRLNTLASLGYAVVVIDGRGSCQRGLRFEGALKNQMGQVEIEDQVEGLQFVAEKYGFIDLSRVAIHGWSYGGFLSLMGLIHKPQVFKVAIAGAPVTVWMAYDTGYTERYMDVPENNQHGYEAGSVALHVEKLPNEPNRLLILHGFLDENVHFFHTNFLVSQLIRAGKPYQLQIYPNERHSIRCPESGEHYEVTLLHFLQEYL
Sequence of Dipeptidyl peptidase 8 (Q6V1X1 whole entry): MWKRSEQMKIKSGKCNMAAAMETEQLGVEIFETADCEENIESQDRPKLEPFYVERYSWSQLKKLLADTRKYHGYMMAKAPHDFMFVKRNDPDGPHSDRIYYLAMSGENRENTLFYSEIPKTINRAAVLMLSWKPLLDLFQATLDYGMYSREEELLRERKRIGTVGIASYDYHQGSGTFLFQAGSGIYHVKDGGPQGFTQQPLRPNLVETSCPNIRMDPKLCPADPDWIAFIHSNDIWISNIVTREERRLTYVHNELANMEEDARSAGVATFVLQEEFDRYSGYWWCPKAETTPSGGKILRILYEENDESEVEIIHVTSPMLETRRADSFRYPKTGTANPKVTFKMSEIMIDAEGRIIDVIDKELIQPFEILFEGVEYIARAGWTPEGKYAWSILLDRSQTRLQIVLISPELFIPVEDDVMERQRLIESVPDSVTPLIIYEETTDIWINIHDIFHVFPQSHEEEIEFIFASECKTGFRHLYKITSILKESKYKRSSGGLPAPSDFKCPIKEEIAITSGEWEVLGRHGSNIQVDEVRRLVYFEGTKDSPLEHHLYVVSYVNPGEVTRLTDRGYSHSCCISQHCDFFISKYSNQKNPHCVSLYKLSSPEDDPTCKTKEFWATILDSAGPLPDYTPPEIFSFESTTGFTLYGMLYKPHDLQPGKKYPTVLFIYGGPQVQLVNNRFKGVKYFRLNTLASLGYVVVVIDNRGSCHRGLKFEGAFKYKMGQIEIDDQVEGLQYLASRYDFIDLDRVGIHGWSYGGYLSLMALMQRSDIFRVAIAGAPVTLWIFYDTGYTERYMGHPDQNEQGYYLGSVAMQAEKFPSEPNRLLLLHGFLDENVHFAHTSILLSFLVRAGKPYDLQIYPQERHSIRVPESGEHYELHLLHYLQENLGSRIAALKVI

C#C[C@H]1CC[C@@H](C#N)N1C(=O)CNC1(C)CCN(c2ccc(C#N)cn2)CC1
> 30 µM: all assays above

C#C[C@H]1CC[C@@H](C#N)N1C(=O)CNC(C)(C)C
> 30 µM: [3] | [4]
